{"source": "patent US8957076B2", "about": "“Wound healing” (Systagenix Wound Management (US), Inc., priority 2004, dated 2015)", "test_system": "diabetic wounds", "assay": "Closure of full thickness flank skin wounds in diabetic mice, topical treatment", "format": "in vivo, mice (C57BLKs/Bom db/db)", "details": "for % wound area remaining relative to day 0 (mean ± standard error): six wounds", "procedure": "Female diabetic mice (C57BLKs/Bom db/db; B&M, Denmark) aged approximately 16 weeks will be used in this study. On arrival mice were housed in groups of 5 to 10 according to Home Office regulations. On the first day of the study period, animals were housed in individual cages (cage dimensions 35×15×15 cm with sawdust bedding, changed twice weekly), in an environment maintained at an ambient temperature of 23° C. with 12-hour light/dark cycles. They were provided with food (Standard Rodent Diet) and water ad libitum. To acclimatise the animals to their surroundings, prior to experimentation, they were housed for a minimum of one week without disturbance, other than to refresh their bedding and to replenish their food and water provisions. Following wounding, animals were monitored until they had fully recovered from the procedure and then housed under individual conditions for the remainder of the study period. All animal procedures were carried out in a Home Office licensed establishment in accordance with Home Office Licence procedures. Animals were anaesthetised (halothane and air) and shaved. A single standardised full thickness wound (7.5 mm×7.5 mm) was created in the flank skin of each experimental animal. Wounds received, saline [50 μl], vehicle [50 μl pH 4.0 vehicle], 1 μg of p38 MAP kinase inhibitor [in 50 μl pH 4.0 vehicle] or 10 μg of p38 MAP kinase inhibitor [in 50 μl pH 4.0 vehicle]. The p38 MAP kinase inhibitor had the following formula: All wounds were secondarily dressed with a 1.5×1.5 cm pad of RELEASE dressing (Johnson & Johnson Wound Management). The RELEASE pad was held in place using a circumferential band of the occlusive film dressing Bioclusive (Johnson & Johnson Wound Management). Animals were re-anaesthetized and treatments re-applied on days 2, 4, 7, 9 and 11-post wounding. Immediately after wounding and subsequently on days 2, 4, 7, 9, 11 and 14 all wounds were digitally photographed together with a calibration/identity plate. On day 14 of the study animals will be euthanised. Image Pro image analysis software (version 4.1.0.0, Media Cybernetics, USA) was used to calculate wound closure from wound images in each of the experimental groups over time. Non-parametric analysis (Kruskal Wallis—Multivariate Analysis followed by ad hoc two sample Mann Whitney U-test analysis) will be used to test the significance of any inter-group differences in wound closure."}
{"smiles": "CC(=O)N1CCN(c2c(-c3ccncc3)c(-c3ccc(F)cc3)c(C#N)n2C)CC1", "note": "[p38 MAP kinase inhibitor]", "values": [{"measurement": "% wound area remaining relative to day 0 (mean ± standard error)", "setting": "1.0 μg per wound in 50 μl pH 4.0 vehicle, day 2 post-wounding", "result": "86.15 ± 6.63", "unit": "%"}, {"measurement": "% wound area remaining relative to day 0 (mean ± standard error)", "setting": "1.0 μg per wound in 50 μl pH 4.0 vehicle, day 4 post-wounding", "result": "66.32 ± 6.58", "unit": "%"}, {"measurement": "% wound area remaining relative to day 0 (mean ± standard error)", "setting": "1.0 μg per wound in 50 μl pH 4.0 vehicle, day 7 post-wounding", "result": "38.65 ± 2.62", "unit": "%"}, {"measurement": "% wound area remaining relative to day 0 (mean ± standard error)", "setting": "1.0 μg per wound in 50 μl pH 4.0 vehicle, day 9 post-wounding", "result": "18.87 ± 4.44", "unit": "%"}, {"measurement": "% wound area remaining relative to day 0 (mean ± standard error)", "setting": "1.0 μg per wound in 50 μl pH 4.0 vehicle, day 11 post-wounding", "result": "6.03 ± 2.17", "unit": "%"}, {"measurement": "% wound area remaining relative to day 0 (mean ± standard error)", "setting": "10.0 μg per wound in 50 μl pH 4.0 vehicle, day 2 post-wounding", "result": "75.48 ± 6.32", "unit": "%"}, {"measurement": "% wound area remaining relative to day 0 (mean ± standard error)", "setting": "10.0 μg per wound in 50 μl pH 4.0 vehicle, day 4 post-wounding", "result": "58.34 ± 6.49", "unit": "%"}, {"measurement": "% wound area remaining relative to day 0 (mean ± standard error)", "setting": "10.0 μg per wound in 50 μl pH 4.0 vehicle, day 7 post-wounding", "result": "29.80 ± 4.66", "unit": "%"}, {"measurement": "% wound area remaining relative to day 0 (mean ± standard error)", "setting": "10.0 μg per wound in 50 μl pH 4.0 vehicle, day 9 post-wounding", "result": "13.31 ± 1.64", "unit": "%"}, {"measurement": "% wound area remaining relative to day 0 (mean ± standard error)", "setting": "10.0 μg per wound in 50 μl pH 4.0 vehicle, day 11 post-wounding", "result": "3.34 ± 0.96", "unit": "%"}, {"measurement": "closure compared to saline treatment", "setting": "10.0 μg, day 2, 7, 11 p=0.055, day 9 p=0.025 (statistically significant)", "result": "noticeably more rapid"}, {"measurement": "wound size compared to citrate treated wounds", "setting": "10.0 μg, day 9 and day 11 assessment points", "result": "statistically smaller"}, {"measurement": "closure of diabetic wounds compared to treatment with the vehicle", "setting": "versus Citrate Buffer, pH 4.0, effect most apparent for the highest dose", "result": "appeared to accelerate the closure of diabetic wounds"}]}
